# Data: patent US12252524B2, “GIP/GLP1 co-agonist compounds” (Eli Lilly and Company, priority 2018, dated 2025)
# Numbered stars: 1 amine (or outer) side, 2 acyl side, 3 side chain; on linkers, the order of the positions; unused ones are H or OH. Square brackets hold non-standard residues; d marks the D form. Side chains are listed from the residue outwards. Peptide text beside a SMILES is read from it. * marks the point of attachment. C20 diacid = O=C(O)CCCCCCCCCCCCCCCCCCC(=O)*; C18 diacid = O=C(O)CCCCCCCCCCCCCCCCC(=O)*; αMePhe(2-F) = C[C@](N)(Cc1ccccc1F)C(=O)O; γGlu = O=C(O)[C@H](CCC(=O)[*:2])N[*:1]; αMeF = C[C@](N)(Cc1ccccc1)C(=O)O; Aad = N[C@@H](CCCC(=O)O)C(=O)O; αMeL = CC(C)C[C@](C)(N)C(=O)O; AEEA = NCCOCCOCC(=O)O; Aib = CC(C)(N)C(=O)O
# Assays:
# [1] = biological target: T1, human GIP receptor (Homo sapiens, UniProt P48546); assay: [125I]-GIP binding (SPA), human GIP receptor; settings: read-out: hGIPR Ki, nM (SEM, n)
# T1 construct: expressed in transfected cells; crude membranes
# T1 sequence (P48546 22-466): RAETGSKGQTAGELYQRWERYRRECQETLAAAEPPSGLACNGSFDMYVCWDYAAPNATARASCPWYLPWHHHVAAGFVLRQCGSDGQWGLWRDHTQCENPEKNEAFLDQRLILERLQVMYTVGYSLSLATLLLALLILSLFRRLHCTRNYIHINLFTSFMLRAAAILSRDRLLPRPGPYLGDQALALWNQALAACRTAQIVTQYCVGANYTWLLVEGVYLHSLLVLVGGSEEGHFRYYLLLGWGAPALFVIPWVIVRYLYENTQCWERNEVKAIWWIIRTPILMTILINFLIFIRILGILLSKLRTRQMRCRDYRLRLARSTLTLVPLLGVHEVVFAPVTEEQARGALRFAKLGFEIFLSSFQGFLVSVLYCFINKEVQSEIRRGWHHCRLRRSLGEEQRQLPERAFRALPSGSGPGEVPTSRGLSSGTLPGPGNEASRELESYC
# [2] = biological target: human GLP-1R (Homo sapiens, UniProt P43220); assay: [125I]-GLP-1 binding (SPA), human GLP-1 receptor; set-up: expressed in transfected cells; crude membranes; settings: read-out: hGLP1R Ki, (nM) (SEM, n)
# Method in brief: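 Ki values are geometric means with SEM over independent replicates on different days, derived from IC50s fitted by four-parameter nonlinear regression. The assay used crude cell membranes in HEPES buffer, pH 7.4, containing CaCl2, MgCl2, bacitracin and TWEEN-20.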
# [3] = biological target: T2, gastric inhibitory peptide receptor (GIPR) (Homo sapiens, UniProt P48546); assay: cAMP pharmacological functional assay in presence of casein, hGIPR; assay type: cell-based; settings: HEK293 cells expressing hGIPR, 0.1% Casein, geometric mean; read-out: hGIPR cAMP Rel EC50 nM (SEM, n)
# T2 sequence (P48546 22-466): T1 sequence (P48546 22-466)
# [4] = biological target: T3, human Gcg receptor (Homo sapiens, UniProt P47871); assay: [125I]-Glucagon binding (SPA), human Gcg receptor; settings: read-out: hGLcgR Ki, nM (SEM, n)
# T3 construct: expressed in transfected cells; crude membranes
# Method in brief: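 Scintillation counts are taken after membranes and WGA beads incubate and settle for 12 hours at room temperature. Buffer is 25 mM HEPES, pH 7.4, with CaCl2, MgCl2, bacitracin and Tween-20. Ki values, from four-parameter IC50 fits, are geometric means over independent days.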
# [5] = biological target: human GLP-1 receptor (GLP-1R) (Homo sapiens, UniProt P43220); assay: cAMP pharmacological functional assay in presence of casein, hGLP-1R; assay type: cell-based; settings: HEK293 cells expressing hGLP-1R, 0.1% Casein, geometric mean; read-out: hGLP1R cAMP Rel EC50 nM (SEM, n)
# Chain of human GLP-1 receptor (GLP-1R) (P43220 24-463): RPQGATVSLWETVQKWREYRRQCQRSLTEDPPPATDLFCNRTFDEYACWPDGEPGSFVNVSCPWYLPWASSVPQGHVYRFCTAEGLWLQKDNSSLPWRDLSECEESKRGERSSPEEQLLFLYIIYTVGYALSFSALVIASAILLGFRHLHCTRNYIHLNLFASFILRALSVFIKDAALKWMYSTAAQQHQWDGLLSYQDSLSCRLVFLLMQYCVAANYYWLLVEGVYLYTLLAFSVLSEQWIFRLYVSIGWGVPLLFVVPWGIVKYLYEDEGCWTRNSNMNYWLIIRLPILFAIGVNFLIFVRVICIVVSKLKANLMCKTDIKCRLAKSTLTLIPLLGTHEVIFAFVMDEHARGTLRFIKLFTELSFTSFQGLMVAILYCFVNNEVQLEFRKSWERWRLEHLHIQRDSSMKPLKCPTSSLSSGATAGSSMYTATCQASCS
# T3 sequence (P47871 26-477): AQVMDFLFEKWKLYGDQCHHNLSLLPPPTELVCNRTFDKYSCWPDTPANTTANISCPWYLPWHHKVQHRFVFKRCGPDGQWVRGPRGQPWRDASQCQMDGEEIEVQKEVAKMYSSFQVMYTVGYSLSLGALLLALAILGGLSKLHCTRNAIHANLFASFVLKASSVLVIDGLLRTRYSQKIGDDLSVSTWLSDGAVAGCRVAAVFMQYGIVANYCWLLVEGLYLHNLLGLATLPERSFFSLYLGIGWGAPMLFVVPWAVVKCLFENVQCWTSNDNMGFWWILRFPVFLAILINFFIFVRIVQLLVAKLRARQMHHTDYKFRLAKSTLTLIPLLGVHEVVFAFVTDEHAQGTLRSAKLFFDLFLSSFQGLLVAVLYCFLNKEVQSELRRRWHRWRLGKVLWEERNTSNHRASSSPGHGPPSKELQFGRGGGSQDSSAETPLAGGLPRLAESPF
# Chain of human GLP-1R (P43220 24-463): as the sequence (P43220 24-463) above
SMILES,Ki [1] [nM],Ki [2] [nM],EC50 [3] [nM],Ki [4] [nM],EC50 [5] [nM]
CC[C@H](C)[C@H](NC(=O)[C@H](CC(C)C)NC(=O)[C@H](Cc1ccc(O)cc1)NC(=O)[C@H](CCC(=O)O)NC(=O)[C@@H](NC(=O)[C@H](Cc1ccccc1)NC(=O)[C@H](CCC(=O)O)NC(=O)C(C)(C)NC(=O)[C@H](CCC(N)=O)NC(=O)[C@H](C)NC(=O)[C@H](CCCCNC(=O)COCCOCCNC(=O)COCCOCCNC(=O)CC[C@H](NC(=O)CCCCCCCCCCCCCCCCC(=O)O)C(=O)O)NC(=O)[C@H](CCCCN)NC(=O)[C@H](CC(=O)O)NC(=O)[C@H](CC(C)C)NC(=O)[C@H](CC(C)C)NC(=O)[C@@H](NC(=O)[C@H](CO)NC(=O)[C@H](Cc1ccc(O)cc1)NC(=O)[C@H](CC(=O)O)NC(=O)[C@H](CO)NC(=O)[C@@H](NC(=O)[C@](C)(Cc1ccccc1F)NC(=O)[C@@H](NC(=O)CNC(=O)[C@H](CCC(=O)O)NC(=O)C(C)(C)NC(=O)[C@@H](N)Cc1ccc(O)cc1)[C@@H](C)O)[C@@H](C)O)[C@@H](C)CC)[C@@H](C)CC)C(=O)N[C@@H](CCC(=O)O)C(=O)NCC(=O)NCC(=O)N1CCC[C@H]1C(=O)N[C@@H](CO)C(=O)N[C@@H](CO)C(=O)NCC(N)=O [Example 312] (H-Y[Aib]EGT[αMePhe(2-F)]TSDYSILLDKK([AEEA-AEEA-γGlu-C18 diacid])AQ[Aib]EFIEYLIEGGPSSG-NH2),0.0348,1.63,0.0207,106,0.0262
CC[C@H](C)[C@H](NC(=O)[C@H](CC(C)C)NC(=O)[C@H](Cc1ccc(O)cc1)NC(=O)[C@@H](CCC(=O)O)NC(=O)[C@@H](NC(=O)[C@H](Cc1ccccc1)NC(=O)[C@H](CCC(=O)O)NC(=O)C(C)(C)NC(=O)[C@H](CCC(N)=O)NC(=O)[C@H](C)NC(=O)[C@H](CCCCNC(=O)COCCOCCNC(=O)COCCOCCNC(=O)CC[C@H](NC(=O)CCCCCCCCCCCCCCCCCCC(=O)O)C(=O)O)NC(=O)[C@H](CCC(=O)O)NC(=O)[C@H](CC(=O)O)NC(=O)[C@H](CC(C)C)NC(=O)[C@H](CC(C)C)NC(=O)[C@@H](NC(=O)[C@H](CO)NC(=O)[C@H](Cc1ccc(O)cc1)NC(=O)[C@H](CC(=O)O)NC(=O)[C@H](CO)NC(=O)[C@@H](NC(=O)[C@](C)(Cc1ccccc1F)NC(=O)[C@@H](NC(=O)CNC(=O)[C@H](CCC(=O)O)NC(=O)C(C)(C)NC(=O)[C@@H](N)Cc1ccc(O)cc1)[C@@H](C)O)[C@@H](C)O)[C@@H](C)CC)[C@@H](C)CC)C(=O)N[C@@H](CCC(=O)O)C(=O)NCC(=O)NCC(=O)N1CCC[C@H]1C(=O)N[C@@H](CO)C(=O)N[C@@H](CO)C(=O)NCC(=O)N[C@@H](C)C(=O)N1CCC[C@H]1C(=O)N1CCC[C@H]1C(=O)N1CCC[C@H]1C(=O)N[C@@H](CO)C(N)=O [Example 226] (H-Y[Aib]EGT[αMePhe(2-F)]TSDYSILLDEK([AEEA-AEEA-γGlu-C20 diacid])AQ[Aib]EFI[dE]YLIEGGPSSGAPPPS-NH2),0.0254,4.1,0.0461,200,0.0284
CC[C@H](C)[C@H](NC(=O)[C@H](CC(C)C)NC(=O)[C@H](Cc1ccc(O)cc1)NC(=O)[C@H](CCC(=O)O)NC(=O)[C@@H](NC(=O)[C@H](Cc1ccccc1)NC(=O)[C@H](C)NC(=O)C(C)(C)NC(=O)[C@H](CCC(N)=O)NC(=O)[C@H](C)NC(=O)[C@H](CCCCNC(=O)COCCOCCNC(=O)COCCOCCNC(=O)CC[C@H](NC(=O)CCCCCCCCCCCCCCCCCCC(=O)O)C(=O)O)NC(=O)[C@H](CCCCN)NC(=O)[C@H](CC(=O)O)NC(=O)[C@H](CC(C)C)NC(=O)[C@H](CC(C)C)NC(=O)[C@@H](NC(=O)[C@H](CO)NC(=O)[C@H](Cc1ccc(O)cc1)NC(=O)[C@H](CC(=O)O)NC(=O)[C@H](CO)NC(=O)[C@@H](NC(=O)[C@H](Cc1ccccc1)NC(=O)[C@@H](NC(=O)CNC(=O)[C@H](CC(N)=O)NC(=O)C(C)(C)NC(=O)[C@@H](N)Cc1ccc(O)cc1)[C@@H](C)O)[C@@H](C)O)[C@@H](C)CC)[C@@H](C)CC)C(=O)N[C@@H](CCC(=O)O)C(=O)NCC(=O)NCC(=O)N1CCC[C@H]1C(=O)N[C@@H](CO)C(=O)N[C@@H](CO)C(=O)NCC(=O)N[C@@H](C)C(=O)N1CCC[C@H]1C(=O)N1CCC[C@H]1C(=O)N1CCC[C@H]1C(=O)N[C@@H](CO)C(N)=O [Example 90] (H-Y[Aib]NGTFTSDYSILLDKK([AEEA-AEEA-γGlu-C20 diacid])AQ[Aib]AFIEYLIEGGPSSGAPPPS-NH2; N-terminus assumed),0.0472,4.76,0.0361,245,0.532
CC[C@H](C)[C@H](NC(=O)[C@H](CC(C)C)NC(=O)[C@H](Cc1ccc(O)cc1)NC(=O)[C@H](CCC(=O)O)NC(=O)[C@@H](NC(=O)[C@H](Cc1ccccc1)NC(=O)[C@H](C)NC(=O)C(C)(C)NC(=O)[C@H](CCC(N)=O)NC(=O)[C@H](C)NC(=O)[C@H](CCCCNC(=O)COCCOCCNC(=O)COCCOCCNC(=O)CC[C@H](NC(=O)CCCCCCCCCCCCCCCCCCC(=O)O)C(=O)O)NC(=O)[C@H](CCCCN)NC(=O)[C@H](CC(=O)O)NC(=O)[C@H](CC(C)C)NC(=O)[C@H](CC(C)C)NC(=O)[C@@H](NC(=O)[C@H](CO)NC(=O)[C@H](CC(C)C)NC(=O)[C@H](CC(=O)O)NC(=O)[C@H](CO)NC(=O)[C@@H](NC(=O)[C@](C)(Cc1ccccc1)NC(=O)[C@@H](NC(=O)CNC(=O)[C@H](CCC(=O)O)NC(=O)C(C)(C)NC(=O)[C@@H](N)Cc1ccc(O)cc1)[C@@H](C)O)[C@@H](C)O)[C@@H](C)CC)[C@@H](C)CC)C(=O)N[C@@H](CCC(=O)O)C(=O)NCC(=O)NCC(=O)N1CCC[C@H]1C(=O)N[C@@H](CO)C(=O)N[C@@H](CO)C(=O)NCC(=O)N[C@@H](C)C(=O)N1CCC[C@H]1C(=O)N1CCC[C@H]1C(=O)N1CCC[C@H]1C(=O)N[C@@H](CO)C(N)=O [Example 129] (H-Y[Aib]EGT[αMeF]TSDLSILLDKK([AEEA-AEEA-γGlu-C20 diacid])AQ[Aib]AFIEYLIEGGPSSGAPPPS-NH2),0.0278,1,0.106,14.9,0.121
CC[C@H](C)[C@H](NC(=O)[C@H](CC(C)C)NC(=O)[C@H](Cc1ccc(O)cc1)NC(=O)[C@H](CCCC(=O)O)NC(=O)[C@@H](NC(=O)[C@H](Cc1ccccc1)NC(=O)[C@H](CCC(=O)O)NC(=O)C(C)(C)NC(=O)[C@H](CCC(N)=O)NC(=O)[C@H](C)NC(=O)[C@H](CCCCNC(=O)COCCOCCNC(=O)COCCOCCNC(=O)CC[C@H](NC(=O)CCCCCCCCCCCCCCCCCCC(=O)O)C(=O)O)NC(=O)[C@H](CCC(=O)O)NC(=O)[C@H](CC(=O)O)NC(=O)[C@H](CC(C)C)NC(=O)[C@](C)(CC(C)C)NC(=O)[C@@H](NC(=O)[C@H](CO)NC(=O)[C@H](Cc1ccc(O)cc1)NC(=O)[C@H](CC(=O)O)NC(=O)[C@H](CO)NC(=O)[C@@H](NC(=O)[C@](C)(Cc1ccccc1F)NC(=O)[C@@H](NC(=O)CNC(=O)[C@H](CCC(=O)O)NC(=O)C(C)(C)NC(=O)[C@@H](N)Cc1ccc(O)cc1)[C@@H](C)O)[C@@H](C)O)[C@@H](C)CC)[C@@H](C)CC)C(=O)N[C@@H](CCC(=O)O)C(=O)NCC(=O)NCC(=O)N1CCC[C@H]1C(=O)N[C@@H](CO)C(=O)N[C@@H](CO)C(=O)NCC(=O)N[C@@H](C)C(=O)N1CCC[C@H]1C(=O)N1CCC[C@H]1C(=O)N1CCC[C@H]1C(=O)N[C@@H](CO)C(N)=O [Example 147] (H-Y[Aib]EGT[αMePhe(2-F)]TSDYSI[αMeL]LDEK([AEEA-AEEA-γGlu-C20 diacid])AQ[Aib]EFI[Aad]YLIEGGPSSGAPPPS-NH2),0.0981,4.47,0.0304,64.9,0.0527
